Test results from patent US20030220361A1, “Nicotinamide derivatives and a tiotropium salt in combination for the treatment of diseases” (priority 2002, published 2003).

system: TNFα release from human peripheral blood mononuclear cells; assay: Inhibition of LPS-stimulated TNFα release from human peripheral blood mononuclear cells (TNFα screen); assay type: cell-based; conditions: human PBMC, LPS stimulation, 18 hours incubation, TNFα in supernatant by ELISA
Experimental: Venous blood is collected from healthy volunteers and the mononuclear cells purified by centrifugation through Histopaque (Ficoll) cushions. TNFα production from these cells is stimulated by addition of lipopolysaccharide. After 18 hours incubation in the presence of LPS, the cell supernatant is removed and the concentration of TNFa in the supernatant determined by ELISA. Addition of PDE4 inhibitors reduces the. amount of TNFQ produced. An IC50 is determined which is equal to the concentration of compound that gives 50% inhibition TNFα production as compared to the LPS stimulated control wells.

Row | IC50 | Structure (SMILES)
1 | 2.1 nM | O=C(N[C@H]1CC[C@@H](C(=O)NCc2ccc(O)cc2F)CC1)c1cccnc1Oc1ccc(F)cc1 [Example 173, Syn-N-[4-(2-Fluoro-4-hydroxy-benzyl-carbamoyl)-cyclohexyl]-2-(4-fluoro-phenoxy)-nicotinamide]
2 | 22 nM | Cc1ccc(O)c(C(=O)N[C@H]2CC[C@H](NC(=O)c3cc(F)cnc3Oc3ccc4c(c3)OCO4)CC2)c1 [Example 8]

Row | Structure (SMILES) | IC50
3 | O=C(N[C@H]1CC[C@H](NC(=O)c2cc(F)cnc2Oc2ccc(F)cc2)CC1)c1cc(Cl)ccc1O [Example 20] | 113 nM
